Assay: xn = mol fraction of the nth substance listed, in the solute-free solvent

CN1CCC(N(Cc2cccs2)c2ccccc2)CC1 + CN(C)C=O + O
solubility (g/100 g solution)
Conditions | 278.15 K | 283.15 K | 288.15 K | 293.15 K | 298.15 K | 303.15 K | 308.15 K | 313.15 K | 318.15 K | 323.15 K
x2 = 0.02666 | 0.234 | 0.248 | 0.263 | 0.283 | 0.308 | 0.336 | 0.367 | 0.396 | 0.432 | 0.473
x2 = 0.05806 | 0.678 | 0.715 | 0.75 | 0.8 | 0.862 | 0.931 | 1.01 | 1.08 | 1.16 | 1.26
x2 = 0.09556 | 1.25 | 1.32 | 1.38 | 1.47 | 1.58 | 1.7 | 1.83 | 1.95 | 2.11 | 2.27
x2 = 0.1412 | 1.74 | 1.84 | 1.95 | 2.07 | 2.23 | 2.4 | 2.59 | 2.76 | 2.98 | 3.21
x2 = 0.1978 | 2.05 | 2.19 | 2.34 | 2.51 | 2.71 | 2.93 | 3.16 | 3.38 | 3.65 | 3.96
x2 = 0.27 | 2.31 | 2.46 | 2.65 | 2.87 | 3.12 | 3.38 | 3.66 | 3.93 | 4.27 | 4.64
x2 = 0.3652 | 2.53 | 2.75 | 2.99 | 3.25 | 3.54 | 3.83 | 4.16 | 4.52 | 4.89 | 5.35
x2 = 0.4965 | 2.78 | 3.02 | 3.28 | 3.6 | 3.95 | 4.31 | 4.69 | 5.09 | 5.53 | 6.09
x2 = 0.6893 | 2.78 | 3.07 | 3.4 | 3.73 | 4.13 | 4.53 | 4.98 | 5.42 | 5.95 | 6.54

Cc1ccc2cc(Br)ccc2n1 + CN(C)C=O + O
solubility (g/100 g solution)
Conditions | 278.15 K | 283.15 K | 288.15 K | 293.15 K | 298.15 K | 303.15 K | 308.15 K | 313.15 K | 318.15 K | 323.15 K
x2 = 0.02666 | 0.101 | 0.115 | 0.132 | 0.15 | 0.17 | 0.192 | 0.22 | 0.251 | 0.284 | 0.323
x2 = 0.05806 | 0.422 | 0.471 | 0.529 | 0.591 | 0.66 | 0.737 | 0.832 | 0.936 | 1.05 | 1.18
x2 = 0.09556 | 0.867 | 0.964 | 1.07 | 1.19 | 1.32 | 1.47 | 1.66 | 1.86 | 2.08 | 2.34
x2 = 0.1412 | 1.17 | 1.3 | 1.45 | 1.61 | 1.79 | 2 | 2.27 | 2.55 | 2.86 | 3.23
x2 = 0.1978 | 1.23 | 1.39 | 1.57 | 1.77 | 1.98 | 2.23 | 2.52 | 2.87 | 3.25 | 3.69
x2 = 0.27 | 1.27 | 1.43 | 1.63 | 1.85 | 2.11 | 2.39 | 2.74 | 3.13 | 3.57 | 4.1
x2 = 0.3652 | 1.38 | 1.58 | 1.8 | 2.04 | 2.31 | 2.62 | 2.99 | 3.45 | 3.97 | 4.61
x2 = 0.4965 | 1.52 | 1.77 | 2.05 | 2.31 | 2.62 | 3.01 | 3.5 | 4.08 | 4.7 | 5.46
x2 = 0.6893 | 1.67 | 1.91 | 2.2 | 2.61 | 2.99 | 3.44 | 3.98 | 4.63 | 5.36 | 6.25

O=C1CCC(C(=O)N2CSCC2C(=O)O)N1 (centres undefined) + CO + CC(C)=O
solubility (g/100 g solution)
Conditions | 278.15 K | 283.15 K | 288.15 K | 293.15 K | 298.15 K | 303.15 K | 308.15 K | 313.15 K | 318.15 K | 323.15 K
x2 = 0.1676 | 0.03 | 0.0418 | 0.06 | 0.08 | 0.115 | 0.159 | 0.227 | 0.34 | 0.497 | 0.708
x2 = 0.3118 | 0.045 | 0.0699 | 0.101 | 0.147 | 0.241 | 0.346 | 0.532 | 0.773 | 1.12 | 1.54
x2 = 0.4372 | 0.0669 | 0.0956 | 0.145 | 0.224 | 0.317 | 0.432 | 0.62 | – | 1.24 | 1.72
x2 = 0.5471 | 0.74 | 0.834 | 0.94 | 1.08 | 1.19 | 1.33 | 1.48 | 1.67 | 1.88 | 2.12
x2 = 0.6444 | 0.813 | 0.929 | 1.04 | 1.2 | 1.37 | 1.58 | 1.81 | 2.07 | 2.37 | 2.73
x2 = 0.7311 | 0.964 | 1.09 | 1.21 | 1.38 | 1.56 | 1.76 | 1.99 | 2.24 | 2.54 | 2.94
x2 = 0.8087 | 1.07 | 1.14 | 1.29 | 1.48 | 1.69 | 1.92 | 2.19 | 2.49 | 2.82 | 3.21
x2 = 0.8788 | 1.02 | 1.15 | 1.28 | 1.48 | 1.69 | 1.92 | 2.18 | 2.49 | 2.81 | 3.18
x2 = 0.9422 | 0.998 | 1.13 | 1.25 | 1.42 | 1.64 | 1.87 | 2.14 | 2.43 | 2.77 | 3.13

O=C1CCC(C(=O)N2CSCC2C(=O)O)N1 (centres undefined) + CO + CCCCOC(C)=O
solubility (g/100 g solution)
Conditions | 278.15 K | 283.15 K | 288.15 K | 293.15 K | 298.15 K | 303.15 K | 308.15 K | 313.15 K | 318.15 K | 323.15 K
x2 = 0.2871 | 0.0109 | 0.0159 | 0.0239 | 0.0358 | 0.0528 | 0.0759 | 0.105 | 0.152 | 0.213 | 0.292
x2 = 0.4754 | 0.017 | 0.025 | 0.0349 | 0.0468 | 0.0628 | 0.0977 | 0.147 | 0.219 | 0.325 | 0.472
x2 = 0.6084 | 0.0271 | 0.0398 | 0.0597 | 0.0838 | 0.122 | 0.155 | 0.227 | 0.342 | 0.501 | 0.724
x2 = 0.7073 | 0.0401 | 0.065 | 0.104 | 0.162 | 0.249 | 0.378 | 0.564 | 0.832 | 1.2 | 1.68
x2 = 0.7838 | 0.0447 | 0.0729 | 0.117 | 0.184 | 0.287 | 0.432 | 0.65 | 0.964 | 1.4 | 1.95
x2 = 0.8446 | 0.0601 | 0.0995 | 0.148 | 0.234 | 0.363 | 0.542 | 0.949 | 1.23 | 1.59 | 2.33
x2 = 0.8943 | 0.635 | 0.752 | 0.898 | 0.997 | 1.19 | 1.36 | 1.59 | 1.88 | 2.15 | 2.57
x2 = 0.9355 | 0.674 | 0.824 | 0.969 | 1.11 | 1.26 | 1.5 | 1.8 | 2.04 | 2.4 | 2.85
x2 = 0.9703 | 0.793 | 0.937 | 1.12 | 1.28 | 1.52 | 1.75 | 2.06 | 2.36 | 2.82 | 3.31

Cc1ccc2cc(Br)ccc2n1 + CO + O
solubility (g/100 g solution)
Conditions | 278.15 K | 283.15 K | 288.15 K | 293.15 K | 298.15 K | 303.15 K | 308.15 K | 313.15 K | 318.15 K | 323.15 K
x2 = 0.05881 | 0.0126 | 0.0148 | 0.0176 | 0.0206 | 0.0242 | 0.0281 | 0.0331 | 0.0386 | 0.045 | 0.0524
x2 = 0.1233 | 0.0194 | 0.0228 | 0.0268 | 0.0314 | 0.0369 | 0.0428 | 0.0502 | 0.0586 | 0.0682 | 0.0793
x2 = 0.1942 | 0.0298 | 0.0349 | 0.0409 | 0.0477 | 0.056 | 0.0651 | 0.0761 | 0.0886 | 0.103 | 0.12
x2 = 0.2727 | 0.0444 | 0.052 | 0.0607 | 0.0706 | 0.0828 | 0.0963 | 0.112 | 0.131 | 0.152 | 0.177
x2 = 0.3599 | 0.0588 | 0.0705 | 0.0835 | 0.0981 | 0.115 | 0.135 | 0.156 | 0.18 | 0.21 | 0.245
x2 = 0.4576 | 0.0792 | 0.095 | 0.112 | 0.133 | 0.155 | 0.18 | 0.21 | 0.245 | 0.283 | 0.331
x2 = 0.5675 | 0.097 | 0.117 | 0.14 | 0.166 | 0.195 | 0.228 | 0.266 | 0.311 | 0.361 | 0.421
x2 = 0.6923 | 0.118 | 0.142 | 0.169 | 0.199 | 0.233 | 0.272 | 0.318 | 0.374 | 0.436 | 0.511
x2 = 0.835 | 0.133 | 0.159 | 0.19 | 0.227 | 0.27 | 0.317 | 0.368 | 0.429 | 0.504 | 0.593

Nc1cccc2ccncc12 + CO + O
solubility (g/100 g solution)
Conditions | 278.15 K | 283.15 K | 288.15 K | 293.15 K | 298.15 K | 303.15 K | 308.15 K | 313.15 K | 318.15 K | 323.15 K
x2 = 0.05881 | 0.0271 | 0.0315 | 0.0363 | 0.0431 | 0.0495 | 0.0576 | 0.0677 | 0.079 | 0.0916 | 0.107
x2 = 0.1233 | 0.0301 | 0.035 | 0.0406 | 0.0481 | 0.0556 | 0.0648 | 0.0763 | 0.0893 | 0.104 | 0.122
x2 = 0.1942 | 0.0368 | 0.0428 | 0.0497 | 0.0588 | 0.0681 | 0.0794 | 0.0937 | 0.11 | 0.128 | 0.15
x2 = 0.2727 | 0.0479 | 0.0557 | 0.0648 | 0.0762 | 0.0886 | 0.103 | 0.122 | 0.142 | 0.167 | 0.196
x2 = 0.3599 | 0.0644 | 0.0748 | 0.087 | 0.102 | 0.119 | 0.138 | 0.163 | 0.19 | 0.223 | 0.262
x2 = 0.4576 | 0.0845 | 0.0982 | 0.115 | 0.134 | 0.157 | 0.183 | 0.216 | 0.252 | 0.296 | 0.349
x2 = 0.5675 | 0.111 | 0.128 | 0.15 | 0.175 | 0.205 | 0.238 | 0.282 | 0.329 | 0.387 | 0.455
x2 = 0.6923 | 0.131 | 0.153 | 0.179 | 0.209 | 0.248 | 0.289 | 0.343 | 0.4 | 0.473 | 0.559
x2 = 0.835 | 0.144 | 0.167 | 0.201 | 0.239 | 0.286 | 0.34 | 0.399 | 0.461 | 0.542 | 0.644
